# According to ChEMBL document CHEMBL1143477, “Camptothecin binds to a synthetic peptide identified by a T7 phage display screen” (Bioorg Med Chem Lett, 2005):
# Tests used:
# [1] = Dissociation constant for binding of camptothecin to the synthetic peptide NSSQSARR by surface plasmon resonance (SPR) method after compound dissolved in 10 % DMSO at 25 degree C
# [2] = Dissociation constant for binding of camptothecin to the synthetic peptide NSSQSARR by using quartz-crystal microbalance (QCM) method after compound dissolved in 10 % DMSO at 25 degree C
structure (smiles),measurement,setting,value
CC[C@@]1(O)C(=O)OCc2c1cc1n(c2=O)Cc2cc3ccccc3nc2-1 [CAMPTOTHECIN],Kd,[1],112 nM
same,Kd,[2],94 nM
